Experiments:
[1] = Hydrolytic stability of 1-acyl-7-nitroindolines (reverse-phase HPLC); type: physicochemical; conditions: 62.5 mM Na phosphate, pH 12.01, 30° C.
Description: The extent of hydrolysis was determined by reverse-phase HPLC analysis (mobile phase 25 mM Na phosphate, pH 6.0+10% MeOH, 1.5 ml/min). […] Quantification was based on peak heights compared to those of unhydrolysed controls (to). First-order rate constants for hydrolysis were obtained from single exponential fits to the data.
In addition to the release rate of the bioeffector species following flash irradiation, important properties of any caged compound include stability in aqueous solution and its extent of photolysis upon a single flash irradiation.
In this context, hydrolytic stability refers to the amide bond. […] The use of the free acids avoided analytical complications from the much faster cleavage of the ester group.

[2] = Quantum yield estimation by laser flash irradiation (347 nm); type: physicochemical
Description: Quantum yield estimation for 10. A solution of 1-(2-nitrophenylethyl) phosphate and 10 (each 0.50 mM) together with dithiothreitol (5 mM) was prepared in 25 mM ammonium phosphate, pH 7.0. Aliquots of the solution ([…]) in a 1-mm path length cell were each subjected to one 50-ns flash from a frequency-doubled ruby laser, that delivered 347 nm light with an average energy of 90 mJ (range 83-104 mJ). The combined irradiated solutions were analyzed by reverse-phase HPLC (mobile phase 25 mM Na phosphate, pH 6.0+40% MeOH, 1.5 ml/min). Retention times were 4.2 and 7.2 min for 10 and 1-(2-nitrophenylethyl) phosphate respectively. Quantification was based on peak heights compared to those of the unphotolyzed control. Extinction coefficients at 347 nm used to calculate the relative quantum yields were 2720 and 510 M^−1cm^−1 for 10 and 1-(2-nitrophenylethyl) phosphate respectively. Photolysis and product analysis for compounds 10 and 18.
The product quantum yield (Qp) for photolysis of the glutamate derivative 10 was determined by laser flash irradiation (347 nm) of a solution containing 10 and 1-(2-nitrophenyl)ethyl phosphate (16) (both 0.5 mM in pH 7 phosphate buffer). Conversions by a single flash (˜90 mJ) were 9.7 and 23% respectively (reverse-phase HPLC), leading to Qp=0.043 by comparison with the known value (16) (0.54) for the caged phosphate and after correction for the different extinction coefficients at the irradiation wavelength. Although the value of Qp is low, the relatively high extinction coefficient at ˜350 nm (˜2700 M^−1cm^−1) compared to that of “classical” 2-nitrobenzyl-type caged compounds (˜600 M^−1cm^−1) enables similar photolytic efficiency to be achieved.

[3] = Photolysis and product analysis (HPLC and quantitative amino acid analysis); type: physicochemical; conditions: for Extent of photolysis (conversion): 0.5 mM, 25 mM ammonium phosphate pH 7.0, 3 min mercury arc lamp; for Measured concentration of glutamate as % of value calculated from extent of photolysis: 25 mM ammonium phosphate pH 7.0 ± 1 mM dithiothreitol; for Stoichiometry of effector release upon photolysis: quantitative amino acid analysis of part-photolyzed solutions
Description: Separate solutions of 10 (each 0.50 mM) in 25 mM ammonium phosphate, pH 7.0±1 mM dithiothreitol were irradiated in a 1-mm path length cell for 3 min using light from a mercury arc lamp which passed through Hoya 340 and Schott WG 305 filters before illuminating the cell. The extent of photolysis was determined by reverse-phase HPLC (mobile phase 25 mM Na phosphate, pH 6.0+10% MeOH, 1.5 ml/min). Quantification was based on peak heights compared to those of unphotolyzed controls. Aliquots of the photolyzed solutions were also subjected to quantitative amino acid analysis (see General Procedures).
Photolysis and product analysis for compound 21. A solution (0.5 mM) of 21 in 25 mM ammonium phosphate, pH 7.0 was irradiated as described for compound 10 and the photolyzed solution was quantified by reverse-phase HPLC and amino acid analysis.

glutamate ion channels = experiment: Whole-cell patch clamp of cultured rat cerebellar granule neurones, with and without flash photolysis; type: cell-based
Description: The caged L-glutamate reagent 10 was tested in primary cultures of rat cerebellar granule neurones for its pharmacological actions and ability to effect photolytic activation of glutamate ion channels. All electrophysiological experiments were performed in Mg^2+-free mammalian Ringer's solution containing 100 μM glycine. Cells were voltage clamped at −65 mV with whole-cell patch clamp (17) and the glutamate sensitivity was established by responses to 20 ms pulses of L-glutamate, applied at a frequency of 0.25 Hz by iontophoresis from a 1-μm tipped glass pipette. […] The latter most likely arises from glutamate diffusion away from the photolyzed region. The time course of the initial decline may represent desensitization of non-NMDA glutamate channels.
During the slow decline there was a clear increase in the low frequency noise of the glutamate-activated current compared to baseline, consistent with gating of glutamate-activated ion channels.

[4] = Relative photolysis efficiencies of 8 and 11 (xenon arc lamp, HPLC); type: physicochemical
Description: Relative photolysis efficiencies of 8 and 11. A solution containing both 8 and 11 (each 0.5 mM) in 25 mM Na phosphate, pH 7.0 was irradiated in a 1-mm path length cell using light from a 100 W xenon arc lamp which passed through Hoya 340 and Schott WG 305 filters before. illuminating the cell. The extent of photolysis of each compound was determined by reverse-phase HPLC analysis (mobile phase 10 mM Na phosphate, pH 6.0+50% MeOH, 1.5 mL/min). Retention times for 8 and 11 were 3.8 and 7.8 min respectively. After 2 min irradiation, the extents of conversion for compounds 8 and 11 were 40 and 16% respectively.
Upon comparative photolysis of the 1-glutaryl derivatives 8 and 11 in aqueous solutions at pH 7 and without excluding atmospheric oxygen, the bromo compound 11 was indeed converted ˜2.5-fold less efficiently than 8. Photolysis of 8 proceeded cleanly, as shown by an isosbestic point at 365 nm in spectra of a solution photolyzed for increasing times to at least 65% conversion, but the photoproduct of the protecting group was not the 7-nitroindoline 12 (λmax 450 nm) expected from the previous report (6a). […] Further confirmation of the presence of a nitroso group was that treatment of 13, R=CH2CO2Me) with a thiol readily abolished the 412 nm chromophore, presumably by conversion to the corresponding hydroxylamine (11, 12). […] In control experiments, photolysis of the glutaryl compound 8 in CH2Cl2-dioxane-H2O (2:3:0.05) cleanly gave the expected (6a) nitroindoline 12.

[5] = Comparative photolysis in aqueous solution (Rayonet photochemical reactor, UV-VIS); type: physicochemical; conditions: for Time required for half-maximal photolysis: pH 7 (5:95), 16×350 nm lamps; for Photolysis upon irradiation: near-UV light, UV-visible spectrum of irradiated solution, conditions for 24 not given
Description: Comparative photolysis of methyl 1-acetyl-7-nitroindoline-5-acetate 16 and 1-acetyl-4-methoxy-7-nitroindoline 25 in aqueous solution. Separate 1 ml samples of each compound [0.0896 mM in EtOH-25 mM Na phosphate, pH 7 (5:95)] in 1 cm path length optical cells were photolysed simultaneously for 0, 0.25, 0.5, 1, 2, 4, 6 and 8 min in a Rayonet photochemical reactor (16×350 nm lamps) and UV-VIS spectra were recorded after each irradiation period. FIGS. 4 and 5 show the time course of photolysis for 16 and 25 respectively.
Comparative photolysis of 1-acetyl-4-methoxy-7-nitroindoline 25 and 1-acetyl-4-methoxy-[…] 30 in aqueous solution. Separate 1 ml samples of each compound [0.0748 mM in EtOH-25 mM Na phosphate, pH 7 (5:95)] in 1 cm path length optical cells were photolysed simultaneously for 0, 0.25, 0.5, 1, 2, 4 and 6 min in a Rayonet photochemical reactor (16×350 nm lamps) and UV-VIS spectra were recorded after each irradiation period. FIGS. 6 and 7 show the time course of photolysis for 25 and 30 respectively.
With the relative merits of the substitution pattern on the aromatic ring established, the effect of the more powerfully electron-releasing 4-dimethylamino group was probed. The required indole 32 was prepared via the semicarbazone 31 from N,N-dimethyl-2-methyl-3-nitroaniline by a modified Leimgruber-Batcho procedure (30). […] Nitration as before with NaNO3-TFA gave a complex mixture, from which the 5-nitro compound 34 was separated by chromatography. To achieve isolation of the required 7-nitro isomer 36, the remaining material was hydrolysed and the products chromatographed. The 5,7-dinitroindoline 35 was obtained in pure form, together with fractions that contained the presumed 7-nitroindoline. Acetylation of these combined fractions provided the desired material 36 in poor overall yield. Its structure was confirmed by nOe enhancement of the 5-proton upon irradiation of the dimethylamino signal. In the related 5-nitro isomer 34, irradiation of the dimethylamino signal had no effect on the integrated intensity of either aromatic proton signal. […] The series of compounds described in this latter series of experiments could be coupled to effector moieties, e.g. as described for compounds 10 and 21. [drawing 8] [drawing 9] [drawing 10]

[6] = 0.0896 mM in EtOH-25 mM Na phosphate
[7] = 0.0748 mM in EtOH-25 mM Na phosphate

COC(=O)Cc1cc2c(c([N+](=O)[O-])c1)N(C(=O)CC[C@H](N)C(=O)O)CC2 [Compound 10, Methyl 1-[S-(4-amino-4-carboxybutanoyl)]-7-nitroindoline-5-acetate]
Half-times for hydrolysis (amide hydrolysis) [1]: 6 h
Extinction coefficient at ~350 nm [2]: ~2700 M⁻¹ cm⁻¹
Conversion by a single flash ([2]; 347 nm laser flash, ~90 mJ, 0.5 mM, pH 7 phosphate buffer): 9.7%
Product quantum yield (Qp) ([2]; 347 nm, by comparison with caged phosphate, corrected for extinction coefficients): 0.043
Extinction coefficient at 347 nm ([2]; used to calculate relative quantum yields): 2720 M⁻¹ cm⁻¹
Extent of photolysis (conversion) [3]: ~35%
Measured concentration of glutamate as % of value calculated from extent of photolysis [3]: 90-94%
Stoichiometry of effector release upon photolysis [3]: 1:1 stoichiometry
Efficiency of glutamate release upon photolysis, 10 vs the salt of its free acid ([3]; separate experiments): equal efficiency
Effect on peak response to iontophoretic pulses of L-glutamate (glutamate ion channels; 1 mM in bath, no photolysis): did not diminish
Activation of current in granule neurones by unphotolyzed caged compound (glutamate ion channels; 1 mM in bath, −65 mV, no photolysis): no activation of current
Time scale of L-glutamate release by flash photolysis (glutamate ion channels; 1 ms light pulse): on the same time scale as the light pulse
Rise of inward current after flash photolysis, exponential half-time (mean) (glutamate ion channels; 1 ms xenon arc flash, Schott UG11 filter, n=8): 0.74 ms
Fast decline of inward current, mean half-time (glutamate ion channels; after 1 ms xenon arc flash): 2.9 ms
Activity at glutamate ion channels of NMDA- and non-NMDA-activated types (glutamate ion channels; unphotolyzed compound): inactive

O=C(O)CCCC(=O)N1CCc2cc(Br)cc([N+](=O)[O-])c21 [Compound 11, 5-Bromo-1-glutaryl-7-nitroindoline]
Extent of conversion (photolysis) ([4]; after 2 min irradiation, 0.5 mM each, 25 mM Na phosphate pH 7.0, 100 W xenon arc lamp): 16%
Fold less efficient photolytic conversion than 8 ([4]; aqueous solution pH 7, atmospheric oxygen not excluded): ~2.5 fold

COC(=O)Cc1cc(N=O)c2[nH]ccc2c1 [Compound 13, Methyl 7-nitrosoindole-5-acetate]
Effect of photolysis by-product on glutamate receptors or resting membrane properties (glutamate ion channels; control experiments during and after photolysis): no adverse effect

COC(=O)Cc1cc2c(c([N+](=O)[O-])c1)N(C(C)=O)CC2 [Compound 16, Methyl 1-acetyl-7-nitroindoline-5-acetate]
Time required for half-maximal photolysis [5, 6]: ~1.2 min

N[C@@H](CCC(=O)N1CCc2cc(CC(=O)O)cc([N+](=O)[O-])c21)C(=O)O [Compound 18, 1-[S-(4-amino-4-carboxybutanoyl)]-7-nitroindoline-5-acetic acid]
Extent of photolysis (conversion) [3]: ~51%
Measured concentration of glutamate as % of value calculated from extent of photolysis [3]: 97-108%

COC(=O)Cc1cc2c(c([N+](=O)[O-])c1)N(C(=O)CCCN)CC2 [Compound 21, Methyl 1-(4-aminobutanoyl)-7-nitroindoline-5-acetate]
Extent of photolysis (conversion) [3]: 38%
Stoichiometry of effector release upon photolysis [3]: stoichiometric release of GABA

COC(=O)Cc1cc([N+](=O)[O-])c(OC)c2c1N(C(C)=O)CC2 [Compound 24, Methyl 1-acetyl-4-methoxy-5-nitroindoline-7-acetate]
Photolysis upon irradiation [5]: photostable

COc1ccc([N+](=O)[O-])c2c1CCN2C(C)=O [Compound 25, 1-Acetyl-4-methoxy-7-nitroindoline]
Time required for half-maximal photolysis [5, 7]: ~0.4 min
Time required for half-maximal photolysis [5, 6]: ~0.4 min
Fold more efficient photolysis than 30 ([5]; aqueous solution): ~2 fold
Fold more efficient photolysis than 16 ([5]; aqueous solution, equal concentration): ~3 fold

COc1c(C)cc([N+](=O)[O-])c2c1CCN2C(C)=O [Compound 30, 1-Acetyl-4-methoxy-5-methyl-7-nitroindoline]
Time required for half-maximal photolysis [5, 7]: ~0.9 min
Fold less efficient photolysis than 25 ([5]; aqueous solution): ~2 fold

CC(=O)N1CCc2c(N(C)C)ccc([N+](=O)[O-])c21 [Compound 36, 1-acetyl-4-N,N-dimethylamino-7-nitroindoline]
Photolysis upon irradiation [5]: no detectable photolysis
melting point: 177 to 178 °C

From patent US6765014B1, “1-Acyl-7-nitroindoline derivatives, their preparation and their use as photocleavable precursors” (Medical Research Council, priority 1999, dated 2004)
